Results taken from US9550739B2, “Molecules having certain pesticidal utilities, and intermediates, compositions, and processes related thereto” (priority 2014, dated 2017).

Tests used:
Format in all cases: in vivo
[1] = test system: Beet Armyworm (Spodoptera exigua, LAPHEG) ("BAW"); experiment: Bioassays on Beet Armyworm (BAW), 128-well diet tray assay; conditions: second instar BAW larvae, 50 μg/cm^2 on artificial diet, five to seven days, 25° C.; for mortality at 50 µg/cm2: Spodoptera exigua, 168 h, read-out: BAW % Control (or Mortality) rating
Experimental: (§1) Certain molecules disclosed in this document were tested against BAW and CEW using procedures described in the following examples. In the reporting of the results, the “BAW & CL Rating Table” was used (See Table Section).
Bioassays on BAW were conducted using a 128-well diet tray assay. one to five second instar BAW larvae were placed in each well (3 mL) of the diet tray that had been previously filled with 1 mL of artificial diet to which 50 μg/cm^2 of the test compound (dissolved in 50 μL of 90:10 acetone-water mixture) had been applied (to each of eight wells) and then allowed to dry. Trays were covered with a clear self-adhesive cover and held at 25° C., 14:10 light-dark for five to seven days. Percent mortality was recorded for the larvae in each well; activity in the eight wells was then averaged. The results are indicated in the table entitled “Table ABC: Biological Results” (See Table Section).

[2] = test system: Cabbage Looper (Trichoplusia ni, TRIPNI) ("CL"); experiment: Bioassays on Cabbage Looper (CL), 128-well diet tray assay; conditions: for mortality at 50 µg/cm2: Trichoplusia ni, 168 h, read-out: CL % Control (or Mortality) rating
Experimental: as §1
Bioassays on CL were conducted using a 128-well diet tray assay. one to five second instar CL larvae were placed in each well (3 mL) of the diet tray that had been previously filled with 1 mL of artificial diet to which 50 μg/cm^2 of the test compound (dissolved in 50 μL of 90:10 acetone-water mixture) had been applied (to each of eight wells) and then allowed to dry. Trays were covered with a clear self-adhesive cover and held at 25° C., 14:10 light-dark for five to seven days. Percent mortality was recorded for the larvae in each well; activity in the eight wells was then averaged. The results are indicated in the table entitled “Table ABC: Biological Results” (See Table Section).

[3] = test system: Yellow Fever Mosquito (Aedes aegypti, AEDSAE) ("YFM"); conditions: about 1 day-old larvae, 4000 ppm master solution diluted, 3 days, room temperature
Experimental: Certain molecules disclosed in this document were tested against YFM using procedures described in the following paragraph. In the reporting of the results, the “YFM Rating Table” was used (See Table Section).
Master plates containing 400 μg of a molecule dissolved in 100 μL of dimethyl sulfoxide (DMSO) (equivalent to a 4000 ppm solution) are used. A master plate of assembled molecules contains 15 μL per well. To this plate, 135 μL of a 90:10 water:acetone mixture is added to each well. A robot (Biomek® NXP Laboratory Automation Workstation) is programmed to dispense 15 μL aspirations from the master plate into an empty 96-well shallow plate (“daughter” plate). There are 6 reps (“daughter” plates) created per master. The created daughter plates are then immediately infested with YFM larvae.
The day before plates are to be treated, mosquito eggs are placed in Millipore water containing liver powder to begin hatching (4 g. into 400 mL). After the daughter plates are created using the robot, they are infested with 220 μL of the liver powder/larval mosquito mixture (about 1 day-old larvae). After plates are infested with mosquito larvae, a non-evaporative lid is used to cover the plate to reduce drying. Plates are held at room temperature for 3 days prior to grading. After 3 days, each well is observed and scored based on mortality.

Molecule	mortality at 50 µg/cm2 [1] [%]	mortality at 50 µg/cm2 [2] [%]	YFM % Control (or Mortality) rating [3]	BAW % Control (or Mortality) rating [1]	CL % Control (or Mortality) rating ([2]; second instar CL larvae, 50 μg/cm^2 on artificial diet, five to seven days, 25° C.)
CCN(C(=O)c1ccc(F)c(-c2ccccc2OC)c1)c1ccc(-c2ncn(-c3ccc(OC(F)(F)F)cc3)n2)cc1 [F64, N-Ethyl-6-fluoro-2′-methoxy-N-(4-(1-(4-(trifluoromethoxy)phenyl)-1H-1,2,4-triazol-3-yl)phenyl)-[1,1′-biphenyl]-3-carboxamide]	50 to 100	50 to 100	D (No activity noticed in this bioassay)		
6-Methoxy-N-(4-(1-(4-(trifluoromethoxy)phenyl)-1H-1,2,4-triazol-3-yl)phenethyl)-[1,1′-biphenyl]-3-carboxamide [F56]			A (80-100)	A (50-100)	A (50-100)
Cc1ccccc1-c1cc(F)cc(C(=O)Nc2ccc(-c3ncn(-c4ccc(OC(F)(F)C(F)(F)F)cc4)n3)cc2)c1 [F42, 5-Fluoro-2′-methyl-N-(4-(1-(4-(perfluoroethoxy)phenyl)-1H-1,2,4-triazol-3-yl)phenyl)-[1,1′-biphenyl]-3-carboxamide]	0	50 to 100	D (No activity noticed in this bioassay)		
Cc1cccc(C)c1-c1cccc(C(=S)Nc2ccc(-c3ncn(-c4ccc(OC(F)(F)F)cc4)n3)cc2)c1 [F46, 2′,6′-dimethyl-N-(4-(1-(4-(trifluoromethoxy)phenyl)-1H-1,2,4-triazol-3-yl)phenyl)-[1,1′-biphenyl]-3-carbothioamide]	0 to 50	0	D (No activity noticed in this bioassay)		
COc1ccccc1-c1cccc(C(=O)NCCc2ccc(-c3ncn(-c4ccc(OC(F)(F)F)cc4)n3)cc2)c1 [F50, 2′-methoxy-N-(4-(1-(4-(trifluoromethoxy)phenyl)-1H-1,2,4-triazol-3-yl)phenethyl)-[1,1′-biphenyl]-3-carboxamide]	50 to 100	50 to 100	D (No activity noticed in this bioassay)		
COc1ccccc1-c1cc(C(=O)Nc2ccc(-c3ncn(-c4ccc(OC(F)(F)C(F)(F)F)cc4)n3)cc2)ccc1F [F7, 6-Fluoro-2′-methoxy-N-(4-(1-(4-(perfluoroethoxy)phenyl)-1H-1,2,4-triazol-3-yl)phenyl)-[1,1′-biphenyl]-3-carboxamide]	50 to 100	50 to 100	D (No activity noticed in this bioassay)		
COc1ccc(C(=O)Nc2ccc(-c3ncn(-c4ccc(C(F)(F)F)cc4)n3)cc2)cc1-c1ccccc1 [F61, 6-Methoxy-N-(4-(1-(4-(trifluoromethyl)phenyl)-1H-1,2,4-triazol-3-yl)phenyl)-[1,1′-biphenyl]-3-carboxamide]	50 to 100	50 to 100	A (80-100)		
Cc1ccccc1-c1cccc(C(=O)Nc2ccc(-c3ncn(-c4ccc(OC(F)(F)F)cc4)n3)cc2)n1 [F33, 6-(o-Tolyl)-N-(4-(1-(4-(trifluoromethoxy)phenyl)-1H-1,2,4-triazol-3-yl)phenyl)picolinamide]	0	50 to 100	D (No activity noticed in this bioassay)		
O=C(Nc1ccc(-c2ncn(-c3ccc(OC(F)(F)F)cc3)n2)cc1)c1ccc(F)c(-c2ccccc2F)c1 [F28, 2′,6-Difluoro-N-(4-(1-(4-(trifluoromethoxy)phenyl)-1H-1,2,4-triazol-3-yl)phenyl)-[1,1′-biphenyl]-3-carboxamide]	50 to 100	50 to 100	A (80-100)		
O=C(Nc1ccc(-c2ncn(-c3ccc(OC(F)(F)F)cc3)n2)cc1)c1cccc(-c2ccccc2Cl)c1 [F30, 2′-Chloro-N-(4-(1-(4-(trifluoromethoxy)phenyl)-1H-1,2,4-triazol-3-yl)phenyl)-[1,1′-biphenyl]-3-carboxamide]	50 to 100	50 to 100	D (No activity noticed in this bioassay)		
O=C(Nc1ccc(-c2ncn(-c3ccc(OC(F)(F)F)cc3)n2)cc1)c1ccc(Cl)c(-c2ccccc2)c1 [F34, 6-Chloro-N-(4-(1-(4-(trifluoromethoxy)phenyl)-1H-1,2,4-triazol-3-yl)phenyl)-[1,1′-biphenyl]-3-carboxamide]	50 to 100	50 to 100	D (No activity noticed in this bioassay)		
O=C(Nc1ccc(-c2ncn(-c3ccc(OC(F)(F)C(F)(F)F)cc3)n2)cc1)c1cccc(-c2ccccc2OC(F)(F)F)c1 [F36, N-(4-(1-(4-(Perfluoroethoxy)phenyl)-1H-1,2,4-triazol-3-yl)phenyl)-2′-(trifluoromethoxy)-[1,1′-biphenyl]-3-carboxamide]	0	50 to 100	D (No activity noticed in this bioassay)		
O=C(Nc1ccc(-c2ncn(-c3ccc(OC(F)(F)F)cc3)n2)cc1)c1cccc(-c2ccccc2OCc2ccccc2)c1 [F3, 2′-(Benzyloxy)-N-(4-(1-(4-(trifluoromethoxy)phenyl)-1H-1,2,4-triazol-3-yl)phenyl)-[1,1′-biphenyl]-3-carboxamide]	0	0	D (No activity noticed in this bioassay)		
CC(=O)c1ccccc1-c1cccc(C(=O)Nc2ccc(-c3ncn(-c4ccc(OC(F)(F)C(F)(F)F)cc4)n3)cc2)c1 [F9, 2′-Acetyl-N-(4-(1-(4-(perfluoroethoxy)phenyl)-1H-1,2,4-triazol-3-yl)phenyl)-[1,1′-biphenyl]-3-carboxamide]	50 to 100	50 to 100	A (80-100)		
Cc1ccccc1-c1cccc(C(=O)Nc2ccc(-c3ncn(-c4ccc(OC(F)(F)F)cc4)n3)cc2)c1 [F17, 2′-Methyl-N-(4-(1-(4-(trifluoromethoxy)phenyl)-1H-1,2,4-triazol-3-yl)phenyl)-[1,1′-biphenyl]-3-carboxamide]	50 to 100	50 to 100	D (No activity noticed in this bioassay)		
COc1ccc(C(=O)Nc2ccc(-c3ncn(-c4ccc(OC(F)(F)C(F)(F)F)cc4)n3)cc2)cc1-c1ccccc1 [F13, 6-Methoxy-N-(4-(1-(4-(perfluoroethoxy)phenyl)-1H-1,2,4-triazol-3-yl)phenyl)-[1,1′-biphenyl]-3-carboxamide]	0	50 to 100	D (No activity noticed in this bioassay)		
COc1ccc(C(=O)Nc2ccc(-c3ncn(-c4ccc(OC(F)(F)F)cc4)n3)cc2)cc1-c1ccccc1 [F37, 6-Methoxy-N-(4-(1-(4-(trifluoromethoxy)phenyl)-1H-1,2,4-triazol-3-yl)phenyl)-[1,1′-biphenyl]-3-carboxamide]	50 to 100	50 to 100	A (80-100)		
COc1ccccc1-c1cccc(C(=O)Nc2ccc(-c3ncn(-c4ccc(OC(F)(F)C(F)(F)F)cc4)n3)cc2)c1 [F26, 2′-Methoxy-N-(4-(1-(4-(perfluoroethoxy)phenyl)-1H-1,2,4-triazol-3-yl)phenyl)-[1,1′-biphenyl]-3-carboxamide]	50 to 100	50 to 100	A (80-100)		
COc1ccccc1-c1cc(C(=O)NCCc2ccc(-c3ncn(-c4ccc(OC(F)(F)F)cc4)n3)cc2)ccc1F [F54, 6-Fluoro-2′-methoxy-N-(4-(1-(4-(trifluoromethoxy)phenyl)-1H-1,2,4-triazol-3-yl)phenethyl)-[1,1′-biphenyl]-3-carboxamide]	50 to 100	50 to 100			
